Results taken from EP3498270A1, “SLOW RELEASE FORMULATIONS OF CELL CYCLE REGULATORS AND ANTI-CANCER AGENTS FOR LOCAL TREATMENT OF SOLID CANCER” (Urogen Pharma Ltd., priority 2017, dated 2019).
Read-outs that look alike come from different tables or passages of the source.

What was measured:
UMUC-3 cells [1] = test: XTT cell viability assay; format: cell-based, human; settings: for viability at 1000 µM / EC50: Homo sapiens
Experimental: Cells were treated with 0-16mM HU/ Control (DMSO or RPMI medium only) for up to 20 hours. […] XTT assay for cytotoxicity was then performed and plates were analyzed in an ELISA reader at wave length of 490nm.
The methods used were as described in the other examples. Briefly, UMUC-3 cells were cultured in 96 well microculture plates. Cells were pretreated with 1mM HU (or DMSO- vehicle control) for 2 hours. […] The percentage of viable cells presented in the figures and table was calculated from untreated cells with viability of 100%.

RT-4 cells [2] = test: Cell cytotoxicity / apoptosis (Annexin V FITC and PI staining, flow cytometry); format: cell-based, human; settings: 1mM HU 20 hours, wash; for late apoptosis: after 2 hours Gem 5µM 8 hours, 72 hours from HU washes; for percentages of apoptotic cells: after 2 hours 10µM MMC 8 hours, 48 hours after HU withdrawal
Experimental: After 24 hours to 5 days from HU washes, cells were stained with Annexin V FITC and PI for identifying apoptotic cells according to standard protocols.

UMUC-3 cells [3] = test: as above; settings: 1mM HU 20 hours, wash, after 2 hours 10µM MMC 8 hours; 48 hours after HU withdrawal
RT-4 cells [4] = test: Cell cycle distribution (PI staining, flow cytometry); format: cell-based, human; settings: 1mM HU for 20 hours, 4 hours from HU withdrawal
Experimental: (§1) A Cyan Flow cytometer was used for determining DNA content and cell cycle distribution of UMUC-3 and RT-4 cells. Cells were seeded in 6 well plates (10^6 cells/well) and incubated overnight. Cells were then cultured with cell cycle modulator (0.1-15mM HU or 0.25µM PD0332991) or with DMSO (vehicle control) for up to 20 hours (HU) or 24 hours (PD0332991). Then, the HU, PD0332991 (or DMSO) was washed and replaced by fresh media and cells were fixed at different time points following washes. The fixation was done by a fixation buffer that purchased from ENCO (Cayman). Minimum 2 hours after the fixation, cells were washed and labeled with propidium iodide (PI) for 15 min in the dark. Cells were analyzed by flow cytometry (PI staining was detected in FL3, […] laser).
(§2) Unless otherwise indicated, methods were as described in Example 1. In order to investigate the influence of HU on cell cycle distribution in bladder cancer cell lines, UMUC-3 and RT-4 cells were treated with 1mM HU (or DMSO for vehicle control) for 20 hours. Cell cycle distribution was observed immediately after HU exposure and 2, 4, 6, 8, and 10 hours following HU withdrawal.

UMUC-3 cells [5] = test: as above; format: cell-based, human
Experimental: as §1, §2

RT-4 cells [6] = test: XTT cell viability assay; format: cell-based; settings: Homo sapiens, RT-4, read-out: MMC EC50 concentration value

| Compound | viability (UMUC-3 cells [1]; 1mM HU 20 hours, wash, after 2 hours Gem (EC50) 8 hours) [%] | late apoptosis (RT-4 cells [2]) [%] | percentages of apoptotic cells (UMUC-3 cells [3]) [%] | percentage of cells at the S phase (RT-4 cells [4]) [%] | increase in S phase accumulation (RT-4 cells [4]; versus DMSO control) | percentage of cells at the S phase (UMUC-3 cells [5]; 1mM HU for 20 hours, 4 hours from HU withdrawal) [%] | increase in S phase accumulation (UMUC-3 cells [5]; 1mM HU for 20 hours, versus DMSO control, 4 hours from HU withdrawal) | S phase accumulation (UMUC-3 cells [5]; HU 0.5 to 4mM for 20 hours, 6 hours after the HU wash) | influence on cell cycle distribution (UMUC-3 cells [5]; HU concentrations lower than 0.1mM) | viability at 1000 µM (UMUC-3 cells [1]; UMUC3, 1mM HU 20 hours, wash, after 2 hours Gem (EC50) 8 hours) [%] | viability at 1000 µM (UMUC-3 cells [1]; UMUC3, short exposure: 1mM HU 2 hours, 2 hours wash, 20µM MMC 2 hours, analysed after 48 hours) [%] | percentages of apoptotic cells (RT-4 cells [2]) [%] | EC50 (UMUC-3 cells [1]; UMUC3, 2 h, read-out: MMC EC50 value) [µM] | EC50 (UMUC-3 cells [1]; UMUC3, read-out: MMC EC50 concentration value) [µM] | EC50 (RT-4 cells [6]) [µM] |
| --- | --- | --- | --- | --- | --- | --- | --- | --- | --- | --- | --- | --- | --- | --- | --- |
| Nc1ccn([C@@H]2O[C@H](CO)[C@@H](O)C2(F)F)c(=O)n1 [Gem, Gemcitabine] | 50.9 | 22.2 | – | – | – | – | – | – | – | – | – | – | – | – | – |
| NC(=O)NO [HU, Hydroxyurea] | – | 5.9 | 8.1 | 48.6 | approximately 6 fold | 57.0 | approximately 3 fold | greater than 50% | no significant influence | 71.3 | 86.1 | 4.8 | – | – | – |
| CO[C@@]12[C@H](COC(N)=O)C3=C(C(=O)C(C)=C(N)C3=O)N1C[C@@H]1N[C@@H]12 [MMC, Mitomycin C] | – | – | 21.4 | – | – | – | – | – | – | – | – | 13.4 | 20 | 10 | 5 to 20 |
